For assay [1], the target named is T1, Kras and SOS1 (biotin-tagged human Kras loaded with GDP, His-tagged human SOS1) (Homo sapiens, UniProt P01116, G12D).
T1 construct: made in house; host or cells: E. coli (stated for Kras only)
Briefly: Protein-protein interaction inhibition between Kras and SOS1 (KrasGl2D-SOS PPI) using AlphaScreen. The class given is binding. The settings on record: AlphaScreen; biotin-tagged human Kras loaded with GDP, His-tagged human SOS1; read-out: KRAS G12D-SOS PPI IC50. Summed up:
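Donor beads (nickel) hold His-SOS1; acceptor beads (streptavidin) hold biotin-Kras bound to GDP. Signal measured at 520-620 nm following 680 nm excitation.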
A general note: Bead proximity is the source of the signal in Alpha formats.

Assay [2] has as its system Human pancreatic cancer cell line AsPC-1. The assay can be described thus: Measurement of AsPC-1 cell growth inhibition (AsPC-1 CGI). The note with it: 96 h. It counts as cell-based. In short, it runs like this: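 AsPC-1 cells in 15% FBS RPMI-1640 were exposed to test compound for 96 hours at 37° C, with CellTiter-Glo as endpoint.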

Starred links: 1 amine or outer side, 2 acyl side, 3 side chain; linkers in the order of their positions; H or OH if unused. Positions of bridges follow the written chain, without caps; N, C: chain ends. Non-standard residues stand in square brackets, D forms with d. Residues, ends and D or L forms follow the SMILES beside them. *: point of attachment. hPhe(3-Cl-4-CF3) = N[C@@H](CCc1ccc(C(F)(F)F)c(Cl)c1)C(=O)O; NMePhe(4-CF3) = CN[C@@H](Cc1ccc(C(F)(F)F)cc1)C(=O)O; NPrAsp = CCCN([C@@H](CC(=O)[*:3])C(=O)[*:2])[*:1]; hPhe(4-CF3) = N[C@@H](CCc1ccc(C(F)(F)F)cc1)C(=O)O; NMeMet(O2) = CN[C@@H](CCS(C)(=O)=O)C(=O)O; NMedβ3hAla = C[C@H](CC(=O)[*:2])N(C)[*:1]; NMeAla(cPent) = CN[C@@H](CC1CCCC1)C(=O)O; NMeGly(cPent) = CN[C@H](C(=O)O)C1CCCC1; Pro(4,4-F2) = O=C(O)[C@@H]1CC(F)(F)CN1; NMeAla(cPr) = CN[C@@H](CC1CC1)C(=O)O; NMeGly(cBu) = CN[C@H](C(=O)O)C1CCC1; NMeCha = CN[C@@H](CC1CCCCC1)C(=O)O; NMeChg = CN[C@H](C(=O)O)C1CCCCC1; NMeD = CN[C@@H](CC(=O)O)C(=O)O; NMeL = CN[C@@H](CC(C)C)C(=O)O; NMeV = CN[C@H](C(=O)O)C(C)C; NMeS = CN[C@@H](CO)C(=O)O; Ac6c = NC1(C(=O)O)CCCCC1; NMeA = CN[C@@H](C)C(=O)O; Piperidide = C1CCN(*)CC1; Pyrrolidide = C1CCN(*)C1; Ac5c = NC1(C(=O)O)CCCC1; Aze = O=C(O)[C@@H]1CCN1; CH2CMe2OH = CC(C)(O)C*; Sar = CNCC(=O)O

T1 sequence (P01116 1-188 isoform P01116-2 G12D): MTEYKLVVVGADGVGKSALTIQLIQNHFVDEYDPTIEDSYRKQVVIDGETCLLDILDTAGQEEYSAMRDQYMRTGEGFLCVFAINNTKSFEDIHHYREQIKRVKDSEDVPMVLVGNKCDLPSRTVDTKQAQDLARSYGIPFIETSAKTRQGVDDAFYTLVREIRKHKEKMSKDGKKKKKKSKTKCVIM

The IC50 is the concentration at which inhibition is half-maximal. For the compound `CC[C@H](C)[C@@H]1NC(=O)[C@H](CC(C)C)N(C)C(=O)C[C@@H](C(=O)N2CCCCC2)N(C)C(=O)[C@H](CC2CCCC2)N(C)C(=O)C2(CCCC2)NC(=O)[C@@H]2CCCN2C(=O)[C@H](CCc2ccc(C(F)(F)F)c(Cl)c2)NC(=O)CN(C)C(=O)[C@H](CC2CCCCC2)N(C)C(=O)CN(C)C(=O)CN(C)C1=O` [Compound 30] ([NMeL]I[Sar][Sar][NMeCha][Sar][hPhe(3-Cl-4-CF3)]P[Ac5c][NMeAla(cPent)][NMeD]-Piperidide; lactam N-11), the values for the IC50 in assay [1] and in assay [2] were 4.6 nM and 100 to 500 nM, respectively.
For `CC[C@H](C)[C@@H]1NC(=O)[C@H](CC(C)C)N(C)C(=O)C[C@@H](C(=O)N2CCCCC2)N(C)C(=O)[C@H](C2CCCCC2)N(C)C(=O)C2(CCCC2)NC(=O)[C@@H]2CC(F)(F)CN2C(=O)[C@H](CCc2ccc(C(F)(F)F)c(Cl)c2)NC(=O)CN(C)C(=O)[C@H](CC2CCCCC2)N(C)C(=O)CN(C)C(=O)CN(C)C1=O` [Compound 48] ([NMeL]I[Sar][Sar][NMeCha][Sar][hPhe(3-Cl-4-CF3)][Pro(4,4-F2)][Ac5c][NMeChg][NMeD]-Piperidide; lactam N-11), the half-maximal inhibitory concentration (IC50) in assay [1] is 0.97 nM; in assay [2], 20 to 50 nM.
The like results for `CC[C@H](C)[C@@H]1NC(=O)[C@H](CCS(C)(=O)=O)N(C)C(=O)C[C@@H](C(=O)N2CCCCC2)N(C)C(=O)[C@H](C2CCCCC2)N(C)C(=O)C2(CCCC2)NC(=O)[C@@H]2CCCN2C(=O)[C@H](CCc2ccc(C(F)(F)F)c(Cl)c2)NC(=O)CN(C)C(=O)[C@H](CC2CCCCC2)N(C)C(=O)CN(C)C(=O)CN(C)C1=O` [Compound 52] ([NMeMet(O2)]I[Sar][Sar][NMeCha][Sar][hPhe(3-Cl-4-CF3)]P[Ac5c][NMeChg][NMeD]-Piperidide; lactam N-11) were, in that order, 0.66 nM and 100 to 500 nM.
The like results for `CCCN1C(=O)[C@H](C2CCCC2)N(C)C(=O)C2(CCCC2)NC(=O)[C@@H]2CCCN2C(=O)[C@H](CCc2ccc(C(F)(F)F)c(Cl)c2)NC(=O)CN(C)C(=O)[C@H](CC2CCCCC2)N(C)C(=O)CN(C)C(=O)CN(C)C(=O)[C@H]([C@@H](C)CC)NC(=O)[C@H](C)N(C)C(=O)C[C@H]1C(=O)N1CCCCC1` [Compound 56] ([NMeA]I[Sar][Sar][NMeCha][Sar][hPhe(3-Cl-4-CF3)]P[Ac5c][NMeGly(cPent)][NPrAsp]-Piperidide; lactam N-11) were, in that order, 2.3 nM and 20 to 50 nM.
The like results for `CC[C@H](C)[C@@H]1NC(=O)[C@H](CC2CCCC2)N(C)C(=O)C[C@@H](C(=O)N2CCCCC2)N(C)C(=O)[C@H](C(C)C)N(C)C(=O)C2(CCCC2)NC(=O)[C@@H]2CCCN2C(=O)[C@H](CCc2ccc(C(F)(F)F)c(Cl)c2)NC(=O)CN(C)C(=O)[C@H](CC2CCCCC2)N(C)C(=O)CN(C)C(=O)CN(C)C1=O` [Compound 60] ([NMeAla(cPent)]I[Sar][Sar][NMeCha][Sar][hPhe(3-Cl-4-CF3)]P[Ac5c][NMeV][NMeD]-Piperidide; lactam N-11) were, in that order, 7.9 nM and 100 to 500 nM.
For the compound `CC[C@H](C)[C@@H]1NC(=O)[C@H](CC2CC2)N(C)C(=O)C[C@@H](C(=O)N2CCCCC2)N(C)C(=O)[C@H](C2CCCCC2)N(C)C(=O)C2(CCCC2)NC(=O)[C@@H]2CCCN2C(=O)[C@H](CCc2ccc(C(F)(F)F)c(Cl)c2)NC(=O)CN(C)C(=O)[C@H](CC2CCCCC2)N(C)C(=O)CN(C)C(=O)CN(C)C1=O` [Compound 68] ([NMeAla(cPr)]I[Sar][Sar][NMeCha][Sar][hPhe(3-Cl-4-CF3)]P[Ac5c][NMeChg][NMeD]-Piperidide; lactam N-11), the concentration for half-maximal inhibition (IC50) is 0.58 nM in assay [1] and 50 to 100 nM in assay [2].
As to `CC[C@H](C)[C@@H]1NC(=O)[C@H](C)N(C)C(=O)C[C@@H](C(=O)N2CCCCC2)N(C)C(=O)[C@H](C2CCCCC2)N(C)C(=O)C2(CCCC2)NC(=O)[C@@H]2CCCN2C(=O)[C@H](CCc2ccc(C(F)(F)F)cc2)NC(=O)CN(C)C(=O)[C@H](CC2CCCCC2)N(C)C(=O)CN(C)C(=O)CN(C)C1=O` [Compound 72] ([NMeA]I[Sar][Sar][NMeCha][Sar][hPhe(4-CF3)]P[Ac5c][NMeChg][NMeD]-Piperidide; lactam N-11), the IC50 in assay [1] is 0.47 nM; in assay [2], 100 to 500 nM.
The like results for `CC[C@H](C)[C@@H]1NC(=O)[C@H](C2CCC2)N(C)C(=O)C[C@@H](C(=O)N2CCCC2)N(C)C(=O)[C@H](C2CCCCC2)N(C)C(=O)C2(CCCC2)NC(=O)[C@@H]2CCCN2C(=O)[C@H](CCc2ccc(C(F)(F)F)c(Cl)c2)NC(=O)CN(C)C(=O)[C@H](Cc2ccc(C(F)(F)F)cc2)N(C)C(=O)CN(C)C(=O)CN(C)C1=O` [Compound 73] ([NMeGly(cBu)]I[Sar][Sar][NMePhe(4-CF3)][Sar][hPhe(3-Cl-4-CF3)]P[Ac5c][NMeChg][NMeD]-Pyrrolidide; lactam N-11) were, in that order, 0.33 nM and 20 to 50 nM.
For the compound `CC[C@H](C)[C@@H]1NC(=O)[C@H](CC(C)C)N(C)C(=O)C[C@@H](C)N(C)C(=O)[C@H](C(C)C)N(C)C(=O)C2(CCCCC2)NC(=O)[C@@H]2CCCN2C(=O)[C@H](CCc2ccc(C(F)(F)F)c(Cl)c2)NC(=O)CN(C)C(=O)[C@H](CC2CCCCC2)N(C)C(=O)CN(C)C(=O)CN(C)C1=O` [Compound 81] (cyclo([Ac6c][NMeV][NMedβ3hAla][NMeL]I[Sar][Sar][NMeCha][Sar][hPhe(3-Cl-4-CF3)]P)), the half-inhibitory concentration (IC50) in assay [1] is 14 nM; in assay [2] it was 100 to 500 nM.
`CC[C@H](C)[C@@H]1NC(=O)[C@H](CC(C)C)N(C)C(=O)C[C@@H](C(=O)N2CCCCC2)N(C)C(=O)[C@H](C(C)C)N(C)C(=O)C2(CCCC2)NC(=O)[C@@H]2CCCN2C(=O)[C@H](CCc2ccc(C(F)(F)F)c(Cl)c2)NC(=O)CN(C)C(=O)[C@H](CC2CCCCC2)N(C)C(=O)[C@@H]2CCN2C(=O)[C@H](COCC(C)(C)O)N(C)C1=O` [Compound 86] ([NMeL]I[NMeS](CH2CMe2OH)[Aze][NMeCha][Sar][hPhe(3-Cl-4-CF3)]P[Ac5c][NMeV][NMeD]-Piperidide; lactam N-11): the IC50 was 9 nM in assay [1] and 100 to 500 nM in assay [2].
The like results for `CC[C@H](C)[C@@H]1NC(=O)[C@H](C2CCCCC2)N(C)C(=O)C[C@@H](C(=O)N2CCCCC2)N(C)C(=O)[C@H](C(C)C)N(C)C(=O)C2(CCCC2)NC(=O)[C@@H]2CCCN2C(=O)[C@H](CCc2ccc(C(F)(F)F)c(Cl)c2)NC(=O)CN(C)C(=O)[C@H](CC2CCCCC2)N(C)C(=O)CN(C)C(=O)CN(C)C1=O` [Compound 106] ([NMeChg]I[Sar][Sar][NMeCha][Sar][hPhe(3-Cl-4-CF3)]P[Ac5c][NMeV][NMeD]-Piperidide; lactam N-11) were, in that order, 8.9 nM and 100 to 500 nM.
The like results for `CC[C@H](C)[C@@H]1NC(=O)[C@H](CC(C)C)N(C)C(=O)C[C@@H](C(=O)N2CCCCC2)N(C)C(=O)[C@H](C(C)C)N(C)C(=O)C2(CCCC2)NC(=O)[C@@H]2CCCN2C(=O)[C@H](CCc2ccc(C(F)(F)F)cc2)NC(=O)CN(C)C(=O)[C@H](CC2CCCCC2)N(C)C(=O)CN(C)C(=O)CN(C)C1=O` [Compound 108] ([NMeL]I[Sar][Sar][NMeCha][Sar][hPhe(4-CF3)]P[Ac5c][NMeV][NMeD]-Piperidide; lactam N-11) were, in that order, 5 nM and 100 to 500 nM.

Values taken from patent US12371454B2, “Cyclic peptide compound having Kras inhibitory action” (priority 2019, dated 2025).
